For the experiment, the target named is T1, Full-length, GST-tagged, human CaMKIIδ (Homo sapiens, UniProt Q13557).
T1 construct: Full-Length, Glutathione-S-Transferase(GST)-Tagged, Human CaMKIIδ was purchased from Carna Biosciences; purchased Carna Biosciences 02-111
The experiment is described as follows: CaMKIIδ binding assay (TR-FRET with BODIPY-labeled probe ligand). The essentials: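 TR-FRET probe-displacement binding: 0.5 nM GST-CaMKIIδ with 10 μg/mL calmodulin, 1 mM CaCl2, 0.21 nM Tb-anti-GST Ab and 300 nM BODIPY probe in HEPES pH 7.6 buffer. Eight-point 4-fold dilutions, 1 hr at room temperature. IC50 from logistic fit; 100% inhibition defined by 3 μM parent compound.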
(In general: In TR-FRET formats the signal depends on donor and acceptor labels being close together.)

The mark [1] stands for this setting: CaMKIIδ binding assay, results of Table 2.
The mark [2] stands for this setting: Table 2, CaMKIIδ binding assay, activity given as class A/B/C.
The mark [3] stands for this setting: Table 2, activity class for CaMKIIδ.

By IC50 is commonly meant the concentration that gives 50% inhibition.

T1 sequence (Q13557 1-478 isoform Q13557-12): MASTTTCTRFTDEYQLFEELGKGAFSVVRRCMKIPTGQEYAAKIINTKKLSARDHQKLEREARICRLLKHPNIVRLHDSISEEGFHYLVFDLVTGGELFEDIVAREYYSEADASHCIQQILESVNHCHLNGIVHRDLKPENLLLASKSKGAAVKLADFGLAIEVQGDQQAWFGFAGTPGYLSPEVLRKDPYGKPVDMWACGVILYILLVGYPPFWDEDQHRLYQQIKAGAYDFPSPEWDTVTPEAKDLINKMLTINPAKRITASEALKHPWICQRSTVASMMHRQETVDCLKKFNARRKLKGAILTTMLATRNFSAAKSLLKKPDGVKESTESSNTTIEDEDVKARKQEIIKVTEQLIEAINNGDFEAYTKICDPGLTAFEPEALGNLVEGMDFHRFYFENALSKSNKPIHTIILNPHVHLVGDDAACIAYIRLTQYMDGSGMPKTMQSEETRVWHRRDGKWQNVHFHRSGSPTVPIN

Turning to `C[C@@H](Cn1cnnn1)Oc1cc(-c2cnc(Nc3cn(C4CCN(CC5CC5)CC4)nc3C(F)(F)F)nc2)ccc1Cl` [Example 549, (S)-5-(3-((1-(1H-tetrazol-1-yl)propan-2-yl)oxy)-4-chlorophenyl)-N-(1-(1-(cyclopropylmethyl)piperidin-4-yl)-3-(trifluoromethyl)-1H-pyrazol-4-yl)pyrimidin-2-amine], the IC50 under setting [1] was under 10 nM.
Still for that read-out and setting: the value for `C[C@@H](Cn1cnnn1)Oc1cc(-c2cnc(Nc3cc(N4CCC(N5CCOCC5)CC4)ncc3OC(F)(F)F)nc2)ccc1Cl` [Example 537, (S)-5-(3-((1-(1H-tetrazol-1-yl)propan-2-yl)oxy)-4-chlorophenyl)-N-(2-(4-morpholinopiperidin-1-yl)-5-(trifluoromethoxy)pyridin-4-yl)pyrimidin-2-amine] was under 10 nM.
Take `C[C@@H](Cn1cnnn1)Oc1cc(-c2cnc(Nc3cn(C4CC5(C4)CN(C4CCOCC4)C5)nc3OCC(F)(F)F)nc2)ccc1C#N` [Example 938, (S)-2-((1-(1H-tetrazol-1-yl)propan-2-yl)oxy)-4-(2-((1-(2-(tetrahydro-2H-pyran-4-yl)-2-azaspiro[3.3]heptan-6-yl)-3-(2,2,2-trifluoroethoxy)-1H-pyrazol-4-yl)amino)pyrimidin-5-yl)benzonitrile]: the concentration for half-maximal inhibition (IC50) (CaMKIIδ binding assay, activity class per Table 2) was under 10 nM.
The compound `C[C@@H](Cn1cnnn1)Oc1cc(-c2cnc(Nc3cn(C4CCN(C5CCOC5)CC4)nc3C(F)(F)F)nc2)ccc1Cl` (stereo partly drawn) [Example 552, 5-(3-(((S)-1-(1H-tetrazol-1-yl)propan-2-yl)oxy)-4-chlorophenyl)-N-(1-(1-(tetrahydrofuran-3-yl)piperidin-4-yl)-3-(trifluoromethyl)-1H-pyrazol-4-yl)pyrimidin-2-amine] gave an IC50 under setting [1] of under 10 nM.
`C[C@@H](Cn1cnnn1)Oc1cc(-c2cnc(Nc3cn(CC(C)(C)O)nc3OCC(F)(F)F)nc2)ccc1Cl` [Example 816, (S)-1-(4-((5-(3-((1-(1H-tetrazol-1-yl)propan-2-yl)oxy)-4-chlorophenyl)pyrimidin-2-yl)amino)-3-(2,2,2-trifluoroethoxy)-1H-pyrazol-1-yl)-2-methylpropan-2-ol]: the IC50 under setting [2] was under 10 nM.
`COc1cc(N2CCN(CC3COC3)CC2)ncc1Nc1ncc(-c2ccc(Cl)c(O[C@@H](C)Cn3cnnn3)c2)cn1` [Example 652, (S)-5-(3-((1-(1H-tetrazol-1-yl)propan-2-yl)oxy)-4-chlorophenyl)-N-(4-methoxy-6-(4-(oxetan-3-ylmethyl)piperazin-1-yl)pyridin-3-yl)pyrimidin-2-amine] registered a half-maximal inhibitory concentration (IC50) under setting [3] of 10 to 100 nM.
On the same count and under the same terms, for `COc1ccc(N2CCN(CC(N)=O)CC2)cc1Nc1ncc(-c2ccc(Cl)c(O[C@@H](C)Cn3cnnn3)c2)cn1` [Example 686, (S)-2-(4-(3-((5-(3-((1-(1H-tetrazol-1-yl)propan-2-yl)oxy)-4-chlorophenyl)pyrimidin-2-yl)amino)-4-methoxyphenyl)piperazin-1-yl)acetamide] the value was under 10 nM; for `C[C@@H](Cn1cnnn1)Oc1cc(-c2cnc(Nc3cn([C@@H]4CCCC[C@H]4O)nc3C(F)(F)F)nc2)ccc1Cl` (mixture of isomers) [Example 704, trans-2-(4-((5-(3-(((S)-1-(1H-tetrazol-1-yl)propan-2-yl)oxy)-4-chlorophenyl)pyrimidin-2-yl)amino)-3-(trifluoromethyl)-1H-pyrazol-1-yl)cyclohexan-1-ol], under 10 nM.
Under setting [1], `COc1cc2c(cc1Nc1ncc(-c3ccc(Cl)c(O[C@@H](C)Cn4cnnn4)c3)cn1)CCN(CCO)C2` [Example 480, (S)-2-(6-((5-(3-((1-(1H-tetrazol-1-yl)propan-2-yl)oxy)-4-chlorophenyl)pyrimidin-2-yl)amino)-7-methoxy-3,4-dihydroisoquinolin-2(1H)-yl)ethan-1-ol] showed an IC50 of under 10 nM.
Under setting [1], `COc1cc2c(cc1Nc1ncc(-c3ccc(Cl)c(O[C@@H](C)Cn4cnnn4)c3)cn1)CCN(CC(F)F)C2` [Example 476, (S)-N-(5-(3-((1-(1H-tetrazol-1-yl)propan-2-yl)oxy)-4-chlorophenyl)pyrimidin-2-yl)-2-(2,2-difluoroethyl)-7-methoxy-1,2,3,4-tetrahydroisoquinolin-6-amine] displayed a 50% inhibitory concentration (IC50) of 10 to 100 nM.
Regarding `COc1cc2c(cc1Nc1ncc(-c3ccc(C#N)c(O[C@@H](C)Cn4cncn4)c3)cn1)C(=O)N(C1CCC1)C2` [Example 443, (S)-2-((1-(1H-1,2,4-triazol-1-yl)propan-2-yl)oxy)-4-(2-((2-cyclobutyl-6-methoxy-3-oxoisoindolin-5-yl)amino)pyrimidin-5-yl)benzonitrile], the half-inhibitory concentration (IC50) under setting [1] is 10 to 100 nM.
As to `COc1ccc(CN2CCS(=O)(=O)CC2)cc1Nc1ncc(-c2ccc(Cl)c(O[C@@H](C)Cn3cnnn3)c2)cn1` [Example 449, (S)-4-(3-((5-(3-((1-(1H-tetrazol-1-yl)propan-2-yl)oxy)-4-chlorophenyl)pyrimidin-2-yl)amino)-4-methoxybenzyl)thiomorpholine 1,1-dioxide], the IC50 under setting [1] is 10 to 100 nM.
The same measure, in the same setting: for `COc1cnc(C2CCC(F)(F)CC2)cc1Nc1ncc(-c2ccc(Cl)c(O[C@@H](C)Cn3cnnn3)c2)cn1` [Example 508, (S)-5-(3-((1-(1H-tetrazol-1-yl)propan-2-yl)oxy)-4-chlorophenyl)-N-(2-(4,4-difluorocyclohexyl)-5-methoxypyridin-4-yl)pyrimidin-2-amine] the value was at least 100 nM.
Regarding `C[C@@H](Cn1cnnn1)Oc1cc(-c2cnc(Nc3cn(CCCCO)nc3OCC(F)(F)F)nc2)ccc1Cl` [Example 783, (S)-4-(4-((5-(3-((1-(1H-tetrazol-1-yl)propan-2-yl)oxy)-4-chlorophenyl)pyrimidin-2-yl)amino)-3-(2,2,2-trifluoroethoxy)-1H-pyrazol-1-yl)butan-1-ol], under setting [2], the IC50 was under 10 nM.
On the same count and under the same terms, for `C[C@@H](Cn1cnnn1)Oc1cc(-c2cnc(Nc3cn([C@H]4CC[C@H](N5[C@@H]6CC[C@H]5COC6)CC4)nc3OCC(F)F)nc2)ccc1Cl` [Example 844, 5-(3-(((S)-1-(1H-tetrazol-1-yl)propan-2-yl)oxy)-4-chlorophenyl)-N-(1-(trans-4-((1R,5S)-3-oxa-8-azabicyclo[3.2.1]octan-8-yl)cyclohexyl)-3-(2,2-difluoroethoxy)-1H-pyrazol-4-yl)pyrimidin-2-amine] the value was under 10 nM; for `C[C@@H](Cn1cnnn1)Oc1cc(-c2cnc(Nc3cn([C@H]4CC[C@H](N5CCOCC5)CC4)nc3OCC(F)F)nc2)ccc1F` [Example 835, 5-(3-(((S)-1-(1H-tetrazol-1-yl)propan-2-yl)oxy)-4-fluorophenyl)-N-(3-(2,2-difluoroethoxy)-1-(trans-4-morpholinocyclohexyl)-1H-pyrazol-4-yl)pyrimidin-2-amine], under 10 nM.
`Cc1ncc(N2CC(N3CCOCC3)C2)cc1Nc1ncc(-c2ccc(Cl)c(O[C@@H](C)Cn3cnnn3)c2)cn1` [Example 605, (S)-5-(3-((1-(1H-tetrazol-1-yl)propan-2-yl)oxy)-4-chlorophenyl)-N-(2-methyl-5-(3-morpholinoazetidin-1-yl)pyridin-3-yl)pyrimidin-2-amine] returned an IC50 under setting [3] of 10 to 100 nM.
In the case of `COc1cc2c(cc1Nc1ncc(-c3ccc(Cl)c(O[C@@H](C)Cn4cnnn4)c3)cn1)CCNC2` [Example 465, (S)-N-(5-(3-((1-(1H-tetrazol-1-yl)propan-2-yl)oxy)-4-chlorophenyl)pyrimidin-2-yl)-7-methoxy-1,2,3,4-tetrahydroisoquinolin-6-amine], under setting [1], the IC50 was under 10 nM.

The values above are taken from patent US10543212B2, “Substituted amines for treating cardiac diseases” (Cardurion Pharmaceuticals, LLC, priority 2017, dated 2020).
